The values that follow come from patent US20220298541A1, “ASSAY FOR DETERMINING TARGET ENGAGEMENT IN REAL-TIME IN LIVING SYSTEMS” (Indian Institute of Science Education and Research, priority 2021, published 2022).

Residues, ends and D or L forms follow the SMILES beside them. *: point of attachment. Cbz = O=C(OCc1ccccc1)*; CH2F = FC*

Assay [1] concerns the target T1, caspase-3 (Homo sapiens, UniProt P42574).
T1 construct: expressed in transfected cells; host or cells: MCF-7 (caspase-3 null); 2 in A4
T1 sequence (P42574 29-175 limits assumed): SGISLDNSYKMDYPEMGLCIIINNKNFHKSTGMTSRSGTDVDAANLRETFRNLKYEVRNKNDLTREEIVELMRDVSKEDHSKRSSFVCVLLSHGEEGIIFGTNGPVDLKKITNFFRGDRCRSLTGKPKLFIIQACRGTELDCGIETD
T1 sequence (P42574 176-277 limits assumed): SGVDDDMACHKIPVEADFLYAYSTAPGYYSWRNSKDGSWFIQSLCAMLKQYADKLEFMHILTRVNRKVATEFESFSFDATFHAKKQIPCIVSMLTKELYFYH
The assay can be described thus: Screening protease inhibitors by BRET-approach of AbRGT in 96 well plates, caspase-3 RLuc transfected MCF-7 cells. Type of assay: cell-based. The text has this: To show BRET-approach of AbRGT can be used for the high-throughput screening of inhibitors four different inhibitors; Z-VAD-FMK, C-inhibitor-II, E-64, and Q-VD-OPh were selected. Z-VAD-FMK, E-64, and Q-VD-OPh are irreversible inhibitors, while cpm-VAD-CHO is a reversible inhibitor. Z-VAD-FMK and Q-VD-OPh are widely known pan-caspase inhibitors that inhibit caspases with a different mechanism.
For inhibitor screening in a high-throughput format, caspase-3 RLuc transfected MCF-7 cells in 96 well plates were treated with STS (1 μM) for 4 h. Subsequently, after STS treatment, cells were incubated with Z-VAD-FMK or E64 or Q-VD-OPh inhibitors at two different concentrations (25 or 50 μM) for 1 h. Cells were then labeled with the Rh-VAD-FMK probe for 1 h, followed by the addition of coelenterazine h. Immediately after coelenterazine h addition, average radiance was recorded in the donor emission and the acceptor emission channel. The BRET measurements were done by calculating the mBRET values of each sample.
Background: BRET reads energy transfer from a luciferase to a nearby fluorophore.

The subject of assay [2] is caspase-3. The assay can be described thus: Quantification of caspase-3 activation in Caspase-3 RLuc expressing stable MCF-7 clone no. 2 by BRET-approach of AbRGT. Type of assay: cell-based, human. As to the method: Luciferase activity in the MCF7 Caspase3-GGS-RLuc8.6 clone no. 2, 3, 4 was measured by the addition of luciferase substrate, coelentrazine. Immediately after substrate addition, average radiance value was recorded and plotted as a bar graph (FIG. 4.8). […] The caspase-3 activity in the clone 2 cells further quantified by the BRET-approach of AbRGT. MCF-7 Caspase3-GGS-RLuc8.6 clone no. 2 cells were treated with increasing concentration (0, 50, 100, and 200 nM) of STS for 4 h. Subsequently, cells were incubated with Rh-VAD-FMK probe for 1 h followed by the addition of coelentrazine h. Immediately after substrate addition, average radiance was recorded at donor and acceptor filters and the mBRET values were calculated and plotted as a bar graph (FIG. 9).

The test system of assay [3] is caspase-3. The assay can be described thus: Quantification of caspase-3 activation using BRET-approach of AbRGT in MCF-7 cells transiently transfected with pCMV-caspase-3-GGSRLuc 8.6. The note with it: STS 1 μM for 4 h; transiently transfected MCF-7 cells; Rh-VAD-FMK probe; untreated control 11±9.2. Type of assay: cell-based, human.
Procedure: To determine the specific caspase-3 activation, pCMV-caspase-3-GGSRLuc 8.6 plasmid was overexpressed in the MCF-7 cell line since it is caspase-3 null. The cells were subjected to treatment with Staurosporine (STS) (1 μM) for 4 h for the induction of apoptosis. […] Subsequently, cells were incubated with ABFP, Rh-VAD-FMK probe (BRET acceptor) for the labeling of PoI, and other proteases of the same family. The RLuc 8.6 substrate coelenterazine h was added to the cells, and the average radiance was recorded in the donor emission channel, RLuc 8.6 (520-540 nm), and the acceptor emission channel, rhodamine (580-600 nm) channel. The BRET measurements were done by calculating the mBRET values for the STS treated versus untreated samples using the following equation.^7 Here, acceptor and donor is represented by (A) and (D), respectively.
Assay [4] addresses T1, caspase-3. The assay can be described thus: Effect of protease inhibitor on STS dependent caspase activation (BRET based AbRGT, Rh-VAD-FMK probe). Type of assay: cell-based. As to conditions: STS 0-4 μM followed by 1 h treatment with 50 μM Z-VAD-FMK; transiently transfected cells. As to the method: To check the effect of protease inhibitor Z-VAD-FMK on caspase activation, the pCMV-caspase-3-GGS-RLuc8.6 transiently transfected cells were treated with increasing concentration of STS(0-4 μM) followed by 1 h treatment of 50 μM of Z-VAD-FMK. The caspase3 activation was checked by BRET based AbRGT approach by using Rh-VAD-FMK probe. […] Thus we can use the BRET-approach of AbRGT to screen caspase inhibitors and activators. (FIG. 6).

With `CC(C)[C@H](NC(=O)c1ccc2ccccc2n1)C(=O)N[C@@H](CC(=O)O)C(=O)COc1c(F)cccc1F` [Q-VD-OPh], the “mBRET values as compared to Z-VAD-FMK inhibitor” value in assay [1] (STS 1 μM 4 h, then inhibitor 25 or 50 μM for 1 h) is “higher”.
Consider `CN[C@@H]1C[C@H]2O[C@@](C)([C@@H]1OC)n1c3ccccc3c3c4c(c5c6ccccc6n2c5c31)C(=O)NC4` [STS, Staurosporine], for which, in assay [1] (STS 1 μM for 4 h, no inhibitor, 96 well plate), the “mBRET value of the sample in the absence of inhibitor” value is on record as 60±0.4. For the same compound, the “change of mBRET values with increasing STS concentration” value in assay [2] (0, 50, 100 and 200 nM STS for 4 h, clone no. 2) is listed as “increase”. The “increase in mBRET as compared to the untreated cells” value in assay [2] (200 nM STS for 4 h, MCF-7 Caspase3-GGS-RLuc8.6 clone no. 2) was ~4 fold. The “mBRET value (indirect readout of specific caspase-3 activation)” value in assay [3] was 60±0.4.
Regarding `COC(=O)C[C@H](NC(=O)[C@H](C)NC(=O)[C@@H](NC(=O)OCc1ccccc1)C(C)C)C(=O)CF` [Z-VAD-FMK] (Cbz-Val-Ala-Asp(OMe)-CH2F), the “effect on caspase activation in presence of STS compared to only STS treated cells” value in assay [4] is “inhibits the caspase activation”.
